# Measurements reported in patent US11779536B2 (Ocular Therapeutix, Inc., priority 2020, dated 2023).
# Values joined by “and” are separate entries in the source; they are usually repeats but may differ in a detail not shown here. Equal entries are not always repeated. Where two headings read alike, the source gives them in different places.
# Columns and labels:
# [1] = Proof of concept PK study Example 3.2: cyclosporine tear fluid concentration and drug released from inserts; format: in vivo, beagle dogs; settings: beagle, insert nominal dose 0.44 mg, over 32 days, assuming consistent daily release
# From the text: Inserts were removed at 32 days to determine the amount of remaining drug compared to the administered dose.
# [2] = beagle, insert nominal dose 0.7 mg, in 6 weeks
# [3] = for Cyclosporine per insert Mean ± SD: initial 671±13 μg; for Cyclosporine per insert, OD: 0.67 mg insert (initial 671±13 μg), 9% 4a20K SG/trilysine
smiles,measurement,setting,value
"CC=CCC(C)C(O)C1C(=O)NC(CC)C(=O)N(C)CC(=O)N(C)C(CC(C)C)C(=O)NC(C(C)C)C(=O)N(C)C(CC(C)C)C(=O)NC(C)C(=O)NC(C)C(=O)N(C)C(CC(C)C)C(=O)N(C)C(CC(C)C)C(=O)N(C)C(C(C)C)C(=O)N1C (centres unmarked) [cyclosporine, 30-ethyl-33-(1-hydroxy-2-methylhex-4-enyl)-1,4,7,10,12,15,19,25,28-nonamethyl-6,9,18,24-tetrakis(2-methylpropyl)-3,21-di(propan-2-yl)-1,4,7,10,13,16,19,22,25,28,31-undecazacyclotritriacontane-2,5,8,11,14,17,20,23,26,29,32-undecone]",estimated daily delivered dose,[1],6.3 µg/day
same,average amount of cyclosporine released,[2],0.37 mg
same,Cyclosporine per insert Mean ± SD,"[3]; amount left in inserts removed from beagles at day 28, all eyes",576 ± 18 µg
same,Cyclosporine per insert Mean ± SD,"[3]; amount left in inserts removed from beagles at day 50, all eyes",494 ± 32 µg
same,"Cyclosporine per insert, OD",[3]; amount left in single insert removed from beagle right eye at day 28,596 µg
same,"Cyclosporine per insert, OD",[3]; amount left in single insert removed from beagle right eye at day 50,520 µg and 521 µg and 451 µg
same,released amount,"[3]; beagle, initial dose 671±13 μg, 28 days",3.4 µg
same,released amount,"[3]; beagle, initial dose 671±13 μg, 50 days",3.5 µg
same,amount of cyclosporine left in the removed insert,"[3]; beagle, initial dose 671±13 μg, inserts removed at 28 days",576 ± 18 µg
same,amount of cyclosporine left in the removed insert,"[3]; beagle, initial dose 671±13 μg, inserts removed at 50 days",494 ± 32 µg
same,daily estimated delivered dose,"[3]; beagle, initial dose 671±13 μg, over 28 and 50 days",approximately 3.5 μg/day
